The values below come from US20260159484A1, “AKT3 MODULATORS” (GEORGIAMUNE LLC, priority 2021, published 2026).

SMILES strings stand for the structures.

In this assay the target is T1, Akt3 (Mus musculus, UniProt Q9WUA6).
T1 construct: endogenous in cells; host or cells: primary CD4 conventional T cells (CD4+/CD25-) from C57BL/6 mice
T1 sequence (Q9WUA6 whole entry): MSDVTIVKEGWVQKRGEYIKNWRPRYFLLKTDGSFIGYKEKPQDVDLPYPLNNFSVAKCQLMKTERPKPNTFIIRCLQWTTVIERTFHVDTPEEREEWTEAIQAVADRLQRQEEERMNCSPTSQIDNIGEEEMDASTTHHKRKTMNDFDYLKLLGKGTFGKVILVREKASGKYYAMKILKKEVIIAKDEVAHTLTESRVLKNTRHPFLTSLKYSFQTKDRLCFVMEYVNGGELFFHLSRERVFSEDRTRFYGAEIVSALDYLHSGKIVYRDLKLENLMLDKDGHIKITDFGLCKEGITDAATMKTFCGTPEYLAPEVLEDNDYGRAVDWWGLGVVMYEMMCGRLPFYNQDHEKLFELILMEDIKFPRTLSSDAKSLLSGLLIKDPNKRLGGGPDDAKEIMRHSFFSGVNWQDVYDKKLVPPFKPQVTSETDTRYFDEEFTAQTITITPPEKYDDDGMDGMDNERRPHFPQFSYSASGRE
As to the kind of experiment: Foxp3 induction assay (iTreg induction from CD4 conventional T cells); reported as Akt3 inhibition activity. The assay is classed as cell-based. The conditions noted are these: Foxp3 induction in CD4 Tconvs from C57/B16 mice, anti-CD3/anti-CD28, IL2, TGF-β, 3 days of culture, flow cytometry. On the procedure:
Sorted or enriched (Miltenyi magnetic separation) CD4 conventional T cells (Tconvs -CD4+/CD25) from C57/B16 mice were used for the induction of iTregs. A 10 μg/mL plate-bound anti-CD3 antibody (50ul per well for 96-well plate), 2.5 μg/mL of soluble anti-CD28 antibody, 100 IU/mL of IL2 and 5 ng/mL of TGF-β in absence or presence of different concentrations of drug (usually titrating from 0.01 uM to 10 uM) were used. As negative control for induction, samples without TGF-β were used.
After 3 days of culture in presence of stimulation, TGF-β and drug, cells were stained with fixable live/dead cell stain (Life Technologies, NY) for gating and exclusion of toxic doses. The mouse Foxp3 buffer kit was used to fix and permeabilize cells according to the manufacturer's instructions (BD Bioscience, San Jose, CA). The anti-CD4 antibody and anti-Foxp3 antibody were used to stain the cells. After staining, cells were acquired using flow cytometer.
The term IC50 denotes the concentration at which inhibition is half-maximal. A high value points to weaker potency in that assay. The molecule `CC(=O)c1cnccc1NC(=O)Cc1ccc(Nc2cc(C)nc3ccccc23)cc1` [Compound 6, N-(3-acetylpyridin-4-yl)-2-(4-((2-methylquinolin-4-yl)amino)phenyl)acetamide] came in with an IC50 below 5 µM.

In turn, `CC(=O)c1ccccc1NC(=O)c1ccc(Nc2c(C)cnc3ccccc23)cc1` [Compound 2, N-(2-acetylphenyl)-4-((3-methylquinolin-4-yl)amino)benzamide] returned an IC50 below 1 µM.

For `Cc1cnc2ccccc2c1Nc1ccc(CC(=O)Nc2ccccc2S(N)(=O)=O)cc1` [Compound 1, 2-(4-((3-methylquinolin-4-yl)amino)phenyl)-N-(2-sulfamoylphenyl)acetamide], the IC50 is below 1 µM.

Consider `CC(=O)c1cccc(NC(=O)Cc2ccc(Nc3cc(C)nc4ccccc34)cc2)c1` [Compound 5, N-(3-acetylphenyl)-2-(4-((2-methylquinolin-4-yl)amino)phenyl)acetamide], for which the IC50 is below 2 µM.

On to `CC(=O)c1ccccc1NC(=O)Cc1ccc(Nc2c(C)cnc3ccccc23)cc1` [Compound 3, N-(2-acetylphenyl)-2-(4-((3-methylquinolin-4-yl)amino)phenyl)acetamide], for which the IC50 is below 1 µM.
